# Source: article PMC8041433 (Environmental Health Perspectives, 2021)
# Values joined by “and” are separate entries in the source; they are usually repeats but may differ in a detail not shown here. Equal values may be shown once. Where a name gives a salt, the structure may show the parent alone. Read-outs that look alike come from different tables or passages of the source.
# Legend:
# recombinant human AChE [1] = target: T1, recombinant human AChE (Homo sapiens, UniProt P22303); test: biochemical
# T1 sequence (P22303 32-614): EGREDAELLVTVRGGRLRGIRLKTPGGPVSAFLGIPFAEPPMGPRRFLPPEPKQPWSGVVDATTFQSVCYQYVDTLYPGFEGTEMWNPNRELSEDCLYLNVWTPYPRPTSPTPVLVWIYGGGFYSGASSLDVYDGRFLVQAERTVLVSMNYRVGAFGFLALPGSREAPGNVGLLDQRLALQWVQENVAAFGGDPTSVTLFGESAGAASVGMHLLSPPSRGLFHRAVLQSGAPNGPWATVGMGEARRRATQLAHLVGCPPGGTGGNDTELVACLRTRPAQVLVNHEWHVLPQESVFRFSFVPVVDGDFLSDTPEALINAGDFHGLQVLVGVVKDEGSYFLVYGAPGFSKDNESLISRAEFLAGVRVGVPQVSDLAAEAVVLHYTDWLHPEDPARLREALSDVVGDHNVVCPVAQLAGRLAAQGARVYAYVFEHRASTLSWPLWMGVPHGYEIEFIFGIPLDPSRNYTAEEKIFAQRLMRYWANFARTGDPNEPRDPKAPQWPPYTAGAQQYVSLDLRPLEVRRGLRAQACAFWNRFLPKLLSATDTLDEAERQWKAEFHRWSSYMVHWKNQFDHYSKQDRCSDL
# recombinant human AChE [2] = target: T1, recombinant human AChE
# AChE in SH-SY5Y cells = AChE in SH-SY5Y cells (Homo sapiens, UniProt P22303); test: cell-based
# Sequence of AChE in SH-SY5Y cells (P22303 32-614): as above
Structure (SMILES),AChE inhibition (result in words) (recombinant human AChE [1]),CC-v2 (curve classes) (recombinant human AChE [1]),Efficacy (recombinant human AChE [1]),IC50 (recombinant human AChE [1]; read-out: IC50),CC-v2 (curve classes) (recombinant human AChE [2]),Efficacy (recombinant human AChE [2]),CC-v2 (curve classes) (AChE in SH-SY5Y cells),IC50 (AChE in SH-SY5Y cells; read-out: IC50),IC50 (recombinant human AChE [2]),IC50 (recombinant human AChE [1]; IC50 (uM)),IC50 (AChE in SH-SY5Y cells; IC50 (uM))
"CC1(C)Cc2cccc(O)c2O1 [2,3-Dihydro-2,2-dimethyl-7-benzofuranol, reference compound]",inactive,,,,,,,,,,
"Nc1ccc(N)c(Cl)c1.O=S(=O)(O)O [2-Chloro-1,4-diaminobenzene sulfate]",,-1.1,-68.64,8.94 µM,4,-13.066,-1.1 and -2.1,22.4 µM and 20 µM,,,
"CCN1C(=CC=Cc2sc3ccccc3[n+]2CC)Sc2ccccc21.[I-] [3,3'-Diethylthiacarbocyanine iodide]",,-3,-76.506,19 µM,4,0,-2.1 and -2.2,10.7 µM and 15.1 µM,,,
"Cc1ccc2c(c1)OCC(=O)CO2 [7-Methyl-2H-1,5-benzodioxepin-3(4H)-one]",,-2.2,-48.628,79.6 µM,4,0,-2.1,35.6 µM and 31.7 µM,,,
C[C@H]1[C@@H]2Cc3ccc(O)cc3[C@@]1(C)CCN2C.C[C@H]1[C@@H]2Cc3ccc(O)cc3[C@@]1(C)CCN2C.O=C(O)/C=C/C(=O)O [(+)-Metazocine fumarate (2:1)],,-2.1,-92.558,33.9 µM,-2.1,-75.846,-1.1,8.52 µM and 10.7 µM and 15.2 µM,191 µM,,
"CC(C)=CCN1CC[C@@]2(C)c3cc(O)ccc3C[C@@H]1[C@@H]2C.O=C(O)CCC(=O)O [(-)-Pentazocine succinate, reference compound]",,-2.4,,,4,0,-2.1,31.2 µM and 35.1 µM and 34.8 µM and 24.7 µM and 31 µM,,,
CNC(=O)O/N=C/C(C)(C)S(C)(=O)=O [Aldoxycarb],,-1.1 and -2.1,,,,,-2.1,,,,
CCCCC(CC)CNC(=N)NC(=N)NCCCCCCNC(=N)NC(=N)NCC(CC)CCCC (stereo not shown) [Alexidine dihydrochloride],,-1.1,-96.324,,4,11.253,,,,17.4 µM,43.6 µM
Cl.O=C(c1ccc(F)cc1)C1CCN(CCn2c(=S)[nH]c3ccccc3c2=O)CC1 [Altanserin hydrochloride],,4,0,,4,0,-2.1,13.8 µM,,,
N=C(N)NC(=O)c1nc(Cl)c(N)nc1N [Amiloride hydrochloride],,4,-15.372,,4,0,-2.1,,,,32.9 µM
Cc1cc(N)c2cc(NC(=O)Nc3ccc4nc(C)cc(N)c4c3)ccc2n1.Cl.Cl [Aminoquinuride dihydrochloride],,4,-15.256,,4,0,,38.9 µM and 30.9 µM,,,
CN1CCCC(n2nc(Cc3ccc(Cl)cc3)c3ccccc3c2=O)CC1 (stereo not shown) [Azelastine hydrochloride],,-2.2,-73.562,,4,0,-2.1,,,27.5 µM,17.4 µM and 15.5 µM
COP(=S)(OC)SCn1nnc2ccccc2c1=O [Azinphos-methyl],,,,,4,,-2.1 and -1.1,,,,
NC(=O)N=NC(N)=O [Azodicarbonamide],,,,,4,0,,,,63.3 µM and 71.2 µM,71 µM and 63.5 µM and 71.2 µM and 79.6 µM and 89.6 µM
CCN=C1C=CC(=C(c2ccc(N(CC)CC)cc2)c2ccc(N(CC)CC)cc2)c2ccccc21.Cl [Basic Blue 7],,-1.1,-96.089,19.9 µM,4,0,-2.1,62.9 µM and 70.6 µM and 79.2 µM,,,
CC(C)C[C@H]1C(=O)N2CCC[C@H]2[C@]2(O)O[C@](NC(=O)[C@@H]3C=C4c5cccc6[nH]c(Br)c(c56)C[C@H]4N(C)C3)(C(C)C)C(=O)N12 [Bromocriptine mesylate],,-1.1,-70.597,,4,0,-1.1,,,,5.38 µM and 2.7 µM
CCOP(=S)(OCC)Oc1cc(Cl)c(Br)cc1Cl [Bromophos-ethyl],,-3,-50.884,,-1.1,-91.453,,,,,
CNC(=O)O/N=C(\C)C(C)S(C)(=O)=O (stereo not shown) [Butoxycarboxim],,-2.2,-49.747,,4,0,-2.1,,,794 µM,355 µM and 398 µM and 447 µM
Cc1ccc(S(=O)(=O)Oc2ccc(N=Nc3ccc(-c4ccc(N=Nc5c(O)ccc6cc(S(=O)(=O)[O-])cc(S(=O)(=O)[O-])c56)c(C)c4)cc3C)cc2)cc1.[Na+].[Na+] [C.I. Acid Red 114],,-1.1,,,4,22.5 and 26.805,4,,,,

Structure (SMILES),AChE inhibition (result in words) (recombinant human AChE [1]),CC-v2 (curve classes) (recombinant human AChE [1]),Efficacy (recombinant human AChE [1]),IC50 (recombinant human AChE [1]; read-out: IC50),CC-v2 (curve classes) (recombinant human AChE [2]),Efficacy (recombinant human AChE [2]),CC-v2 (curve classes) (AChE in SH-SY5Y cells),IC50 (AChE in SH-SY5Y cells; read-out: IC50),IC50 (recombinant human AChE [2]),IC50 (recombinant human AChE [1]; IC50 (uM)),IC50 (AChE in SH-SY5Y cells; IC50 (uM))
Nc1c(/N=N/c2ccc(-c3ccc(/N=N/c4cc(S(=O)(=O)O)c5ccccc5c4N)cc3)cc2)cc(S(=O)(=O)O)c2ccccc12 [C.I. Direct Red 28],,-1.2,-36.697,,4,13.368,,,,10 µM,79.6 µM and 71 µM and 89.4 µM
O=C1c2c(O)ccc(Nc3ccc(CCO)cc3)c2C(=O)c2c([N+](=O)[O-])ccc(O)c21 [C.I. Disperse Blue 27],,-1.2,-62.368,20 µM,4,0,-1.1,8.94 µM and 10 µM,,,
COc1ccc2c(c1OC)CN1CCc3cc4c(cc3[C@@H]1C2)OCO4 [Canadine],,-1.1,-74.441,,-3,-45.32,-1.1 and -2.1,,,,8.71 µM and 11 µM and 9.77 µM
CCOP(=O)(OCC)OC(=CCl)c1ccc(Cl)cc1Cl [Chlorfenvinphos],,-1.1,-95.584,,-1.1,-96.159,-1.1,,,,
[H]/N=C(\N/C(=N/[H])NCCCCCCNC(=N)NC(=N)Nc1ccc(Cl)cc1)Nc1ccc(Cl)cc1 [Chlorhexidine dihydrochloride],,-1.1,-89.988,,4,14.978,,,,22.9 µM,72.3 µM and 64.4 µM
COP(=S)(OC)Oc1nc(Cl)c(Cl)cc1Cl [Chlorpyrifos-methyl],,4,0,,4,0,4 and -2.2,,,,63.3 µM
CCOC(=O)COc1ccc2c(C)c(CCN(CC)CC)c(=O)oc2c1Cl.Cl [Cloricromen hydrochloride],,-2.1,-70.529,15.5 µM,4,-27.609,-2.1,13.8 µM and 15.5 µM,,,
CNP(=O)(OC)Oc1ccc(C(C)(C)C)cc1Cl (stereo not shown) [Crufomate],,-2.2,-70.92,,4,-16.11,-2.1,,,79.6 µM,71 µM and 39.9 µM and 63.3 µM
COP(=O)(OC)O/C(C)=C/C(=O)N(C)C [Dicrotophos],,-2.2,-67.448,,4,0,-2.1,,,63.7 µM,40.2 µM and 31.9 µM
CCCCCCCCCC[N+](C)(CCCCCCCCCC)CCC[Si](OC)(OC)OC.[Cl-] [Disiquonium chloride],,-3,-65.382,79.6 µM,4,0,4,,,,
N#Cc1sc2c(=O)c3ccccc3c(=O)c=2sc1C#N [Dithianon],,4,-13.233,,4,0,-2.1,,,,44.8 µM and 63.3 µM
CCCCCCCCCCCCc1ccc(S(=O)(=O)O)cc1 [Dodecylbenzenesulfonic acid],,-2.1 and -1.1,,63.3 µM and 56.4 µM and 39.9 µM,4,,,79.6 µM and 89.4 µM and 71 µM,,,
CN(CCOc1ccc(NS(C)(=O)=O)cc1)CCc1ccc(NS(C)(=O)=O)cc1 [Dofetilide],,,-14.56,,,0,,,,,17.4 µM
COc1cc2nc(N3CCN(C(=O)C4COc5ccccc5O4)CC3)nc(N)c2cc1OC (stereo not shown) [Doxazosin mesylate],,-2.2,-37.943,,4,0,,,,,
COP(N)(=O)SC (stereo not shown) [Methamidophos],,-2.1,,,,,-2.1,,,,
CCOP(=S)(OCC)Oc1cc(C)nc(N(CC)CC)n1 [Pirimiphos-ethyl],did not show effects,4,-15.947,,4,-16.211,,,,,
"CNC(=C[N+](=O)[O-])NCCSCc1ccc(CN(C)C)o1 [Ranitidine, reference compound]",,,,,,,-1.1,,,,
CCOC(=O)CC(SP(=S)(OC)OC)C(=O)OCC (stereo not shown) [malathion],not identified to inhibit AChE,,,,,,,,,,
